We go through eight compounds from patent US6569867B2, “Polyketide derivatives” (Kosan Biosciences, Inc., priority 1999, dated 2003).

“And” between values parts separate entries of the source, which are not always exact repeats. Identical values can stand only once. Like-named read-outs stand apart in the source and are kept apart here.

The term Kd denotes the concentration at which binding is half-saturated. Usually Ki stands for a dissociation constant, usually derived from enzyme kinetics or from competition with a known ligand.

One data set has as its target T1, FKBP-12 (Homo sapiens, UniProt P62942).
T1 construct: purchased Sigma; host or cells: E. coli
The experiment in a line: FKBP-12 binding assay ([3H]FK-506 competition). The protocol: Calcineurin (“>95% pure by SDS/PAGE”) was obtained from Calbiochem. Neutravidin® coated strip plates, pre-blocked with SuperBlock® were obtained from Pierce. […] Synthetic RII peptide (^+[…]^-) was obtained from Peptides International (Louisville, […].com). […] ATP, cAMP, the catalytic subunit of protein kinase A, bovine brain calmodulin and human FKBP, expressed in E. coli were obtained from Sigma. […] The mixture was incubated for 2 hours at 0° C., the solution was aspirated from the wells, and each well was quickly washed with 300 uL of ice cold PBS-tween. Wells were broken apart, placed in scintillation vials with 10 mL of Scintiverse BD and bound radioactivity was quantitated by scintillation counting. […] to calculate the Kd.

Another data set concerns the target T2, Human 3A4 P-450 (Homo sapiens, UniProt P08684).
T2 construct: purchased Gentest Corporation (Woburn, Mass.) P207
The experiment in a line: P450 stability assay with 3A4 P-450 supersomes. The class given is in vitro ADME. The following applies: 20 μM FK species, 200 pmole P-450/mL, 37° C. The protocol: A mixture containing FK species and a NADPH regenerating system was pre-incubated at 37° C. for 10 minutes before the reaction was commenced by the addition of the P-450 supersomes. The final concentrations of the components were: 100 mM potassium phosphate, pH 7.4; 3.3 mM MgCl2; 3.3 mM glucose-6-phosphate; 1.3 mM NADP; 0.4 U/mL glucose-6-phosphate dehydrogenase; 200 pmole P-450/mL; and 20 μM FK species. Control reactions contained “mock” supersomes without 3A4 P-450 activity. Human 3A4 P-450+Reductase supersomes (cat #P207) and vector control “mock” supersomes without 3A4P-450 (cat #P201) were obtained from Gentest Corporation (Woburn, Mass.).
Following addition of supersomes or mock supersomes, reactions were terminated at 0 minutes (immediately upon addition of P-450) and 30 minutes by addition of acetonitrile containing 0.1% acetic acid to 20% final acetonitrile concentration, followed by freezing immediately on dry ice. For reactions containing the 13-desmethoxy-13-methyl-32-(2-hydroxyethylindolyl)-FK analog, an equal volume of MeOH was added following addition of acetonitrile and the samples were immediately frozen on dry ice. The samples were clarified by centrifugation at 13,000 rpm for 5 minutes at 4° C. in a micro centrifuge prior to HPLC analysis.
The following HPLC program was employed: Column =MetaChem 0.46×15 cm intersil C18 column (5 μm); Solvent A=0.1% HOAc in water; Solvent B=0.1 % HOAc in acetonitrile. Detection=UV (210 nm) and ELSD. Gradient: Equilibration with 20% B; injection (up to 1 ml), hold at 20% B for 5 minutes; linear gradient to 50% B in 5 minutes; linear gradient to 100% B in 20 minutes; to 20% B in 1 minute; hold at 20% B for 10 minutes to equilibrate.
There was no change in peak area after 30 minutes when the FK analogs were incubated with mock supersomes.

The test system of data set [1] is SH-SY5Y human neuroblastoma cells. The experiment in a line: Nerve growth (neurite length) assay. The class given is cell-based. As to the method:
Table 9 summarizes the results of nerve growth as using SH-SY5Y human neuroblastoma cells according to Gold et al., Exp Neuro, 147(2): 269-87 (1997) which is incorporated herein by reference. The assay measures the mean neurite length in […] that were induced at 0.1 nM and 10 nM of the compound of interested after 96 or 168 hours.

Another data set addresses calcineurin (Bos taurus, UniProt P48452+P62942+P63099). Nature of the data set: Calcineurin phosphatase inhibition assay (FKBP-compound complex). The class given is biochemical. The following applies: 15 nM calcineurin, 30 nM calmodulin, 1 uM phospho-RII peptide, 30° C. As to the method:
The catalytic subunit of protein kinase A was used to transfer the labeled phosphate from [γ-^32P]ATP to […] of the RII peptide. […] Fractions were collected and monitored by scintillation counting. […] The columns were prepared by resuspending the resin in water such that there was one volume of water above each volume of settled resin. The slurry (1 mL) was then pipetted into each column, followed by 10 mL of water. The bed volume was verified, then each column was washed with 1 mL 1 N NaOH, 2 mL 1 N HCl, and 4 mL water. Quenched reaction mixtures were applied to the columns, washed twice with 750 uL of water and the eluate was collected directly into scintillation vials. Scintiverse BD (15 mL) was added to each vial, and ^32PO4 was quantitated by scintillation counting. […] Following a 30 minute preincubation, reactions were initiated by addition of the phospho-RII peptide substrate to 1 uM and incubated at 30° C. Aliquots were removed at 3 and 35 minutes, quenched, and PO4 release was measured as described above.

The conditions of data set [2]: cited from earlier work.

Consider `CC[C@@H]1/C=C(\C)C[C@H](C)C[C@H](OC)[C@@H]2CC[C@@H](C)[C@@](O)(O2)C(=O)C(=O)N2CCCC[C@H]2C(=O)O[C@H](/C(C)=C/[C@@H]2CC[C@@H](O)[C@H](OC)C2)[C@H](C)[C@@H](O)CC1=O` [13-desmethoxy-FK-520], for which the Kd at FKBP-12 was found to be 0.4 nM. On Human 3A4 P-450, the “P450 % Stability (at 30 min)” value was 35%.
The matching figures for `CC[C@@H]1/C=C(\C)C[C@H](C)C[C@H](OC)[C@H]2O[C@@](O)(C(=O)C(=O)N3CCCC[C@H]3C(=O)O[C@H](/C(C)=C/[C@@H]3CC[C@@H](O)[C@H](OC)C3)[C@H](C)[C@@H](O)CC1=O)[C@H](C)C[C@@H]2C` [13-desmethoxy-13-methyl-FK-520]: 1.6 nM and 26%.
In data set [1], “Nerve Growth Factor: protein neurotrophic molecule used as comparator in the neurite length assay” displayed a Neurite Length at 0.1 nM 96 h of 143 µm and a Neurite Length at 0.1 nM 168 h of 169 µm.
In turn, `CC[C@@H]1/C=C(\C)C(O)[C@H](C)C[C@H](OC)[C@H]2O[C@@](O)(C(=O)C(=O)N3CCCC[C@H]3C(=O)O[C@H](/C(C)=C/[C@@H]3CC[C@@H](O)[C@H](OC)C3)[C@H](C)[C@@H](O)CC1=O)[C@H](C)C[C@@H]2C` (stereo partly drawn) [13-desmethoxy-13-methyl-18-hydroxyl-FK-520] returned a Kd at FKBP-12 of approximately 1 nM. In addition, in data set [1], the Neurite Length at 0.1 nM 96 h was 168 µm, the Neurite Length at 0.1 nM 168 h turned out to be 191 µm, the Neurite Length at 10 nM 96 h turned out to be 132 µm and the Neurite Length at 10 nM 168 h was 165 µm.
With “18-ene-20-oxa-13-desmethoxy-13-methyl-FK-520”, in data set [1], the Neurite Length at 0.1 nM 96 h was 144 µm, the Neurite Length at 0.1 nM 168 h was 184 µm, the Neurite Length at 10 nM 96 h came out at 104 µm and the Neurite Length at 10 nM 168 h was found to be 135 µm.
As for `CC[C@@H]1/C=C(\C)C[C@H](C)C[C@H](OC)[C@H]2O[C@@](O)(C(=O)C(=O)N3CCCC[C@H]3C(=O)O[C@H](/C(C)=C/[C@@H]3CC[C@@H](O)[C@H](OC)C3)[C@H](C)[C@@H](O)CC1=O)[C@H](C)C[C@@H]2OC` [FK-520, ascomycin, reference compound], the Kd at FKBP-12 was found to be 0.4 nM. The “P450 % Stability (at 30 min)” value on Human 3A4 P-450 is given as 46%.
With “32-[1-(2-Hydroxyethyl)-indol-5-yl]-13-desmethoxy-FK-520”, at calcineurin, the Ki was < 15 nM and 22 nM. For the same compound, at FKBP-12 (competition with 0.5 μM [3H]FK-506, 2 hours at 0° C., Kd of [3H]FK-506 assumed to be 0.4 nM), the Kd is 16.3 nM and 10.4 nM. Besides, the “P450 % Stability (at 30 min)” value at Human 3A4 P-450 was 72% and 77%.
`C=CC[C@@H]1/C=C(\C)C[C@H](C)C[C@H](OC)[C@H]2O[C@@](O)(C(=O)C(=O)N3CCCC[C@H]3C(=O)O[C@H](/C(C)=C/[C@@H]3CC[C@@H](O)[C@H](OC)C3)[C@H](C)[C@@H](O)CC1=O)[C@H](C)C[C@@H]2OC.O` [FK-506, tacrolimus]: in data set [2] (in vivo), the “excreted unchanged in urine” value was “less than 1%” and the half-life for distribution was 54 min. For the same compound, the “bioavailability with co-administration of ketoconazole” value in data set [2] (ketoconazole, a drug that inhibits P450 3A) is “doubles”. Moreover, the “mean bioavailability of the oral dosage form” value in data set [2] (oral, range 5 to 65%) is 27%.
